This is an account of results in ChEMBL document CHEMBL4038345, “Design, Synthesis, and Biological Evaluation of Novel Selenium-Containing Isocombretastatins and Phenstatins as Antitumor Agents” (J Med Chem, 2017).

SMILES strings stand for the structures. Activity calls are given as the source filed them.

Usually IC50 stands for the concentration that gives 50% inhibition. A lower IC50 goes with inhibition by little substance. In general, half-life refers to the time needed for the level to fall by half in the phase considered. High values mean slow decline, low ones rapid decline.

Data set [1] concerns A549. Briefly: Disruption of mitochondrial membrane potential in human A549 cells assessed as intact mitochondrial membrane at 1 nM after 24 hrs by JC1 staining-based flow cytometry method (reference value: 99.18%). The data set is classed as functional. A general note: In flow cytometry, cells or beads pass a laser one at a time.
In data set [2] the test system is A549. Briefly: Induction of apoptosis in human A549 cells assessed as live cells at 10 nM for 24 hrs by annexin V-FITC/propidium iodide staining-based flow cytometry analysis (reference value: 99.15%). It is filed as functional.
Another data set relates to MDA-MB-231. As to the kind of experiment: Antiproliferative activity against human MDA-MB-231 cells after 48 hrs by MTT assay. Particulars: MDA-MB-231, 48 h.
Another data set deals with MCF7. Briefly: cells. Particulars: Homo sapiens, MCF7, 48 h.
The subject of data set [3] is A549. As to the kind of experiment: Induction of apoptosis in human A549 cells assessed as early apoptotic cells at 5 nM for 48 hrs by annexin V-FITC/propidium iodide staining-based flow cytometry analysis (reference value: 0.97%). The data set is classed as functional.
Data set [4] deals with A549. As to the kind of experiment: Disruption of mitochondrial membrane potential in human A549 cells assessed as intact mitochondrial membrane at 5 nM after 24 hrs by JC1 staining-based flow cytometry method (reference value: 99.18%). The data set is classed as functional.
Data set [5] concerns A549. Briefly: Disruption of mitochondrial membrane potential in human A549 cells at 10 nM after 24 hrs by JC1 staining-based flow cytometry method (reference value: 0.62%). The data set is classed as functional.
Data set [6] has as its system A549. As to the kind of experiment: Induction of apoptosis in human A549 cells assessed as necrotic cells at 10 nM for 48 hrs by annexin V-FITC/propidium iodide staining-based flow cytometry analysis (reference value: 0.02%). It is filed as functional.
In data set [7] the test system is A549. As to the kind of experiment: Induction of apoptosis in human A549 cells assessed as downregulation of Bcl2 expression at 1 to 10 nM after 24 to 48 hrs by Western blot analysis. The data set is classed as functional, cell-based. A general note: In western blotting, separated proteins are transferred to a membrane and probed.
The test system of a further data set is A2780. As to the kind of experiment: cells. Particulars: Homo sapiens, A2780, 48 h.
Data set [8] concerns A549. Briefly: Induction of apoptosis in human A549 cells assessed as necrotic cells at 5 nM for 24 hrs by annexin V-FITC/propidium iodide staining-based flow cytometry analysis (reference value: 0.03%). The data set is classed as functional.
For data set [9], the system named is A549. As to the kind of experiment: Induction of apoptosis in human A549 cells assessed as necrotic cells at 5 nM for 48 hrs by annexin V-FITC/propidium iodide staining-based flow cytometry analysis (reference value: 0.02%). It is filed as functional.
Data set [10] has as its system A549. As to the kind of experiment: Disruption of mitochondrial membrane potential in human A549 cells at 1 nM after 24 hrs by JC1 staining-based flow cytometry method (reference value: 0.62%). The data set is classed as functional.
Data set [11] has as its system A549. Briefly: Cell cycle arrest in human A549 cells assessed as increase in accumulation of cells at G2/M phase at 1 nM after 24 hrs by propidium iodide staining-based flow cytometry method. The data set is classed as functional.
The subject of another data set is RKO. As to the kind of experiment: Antiproliferative activity against human RKO cells after 48 hrs by MTT assay. (Formazan colour is commonly taken as a measure of viable cells.)
The test system of the next data set is LoVo. Briefly: Antiproliferative activity against human LoVo cells after 48 hrs by MTT assay.
Data set [12] in a line: Half life in Sprague-Dawley rat by UV-based HPLC-MS/MS analysis. The data set is classed as ADME. Particulars: in vivo.
The next data set relates to A549/CDDP. Briefly: Antiproliferative activity against human A549/CDDP cells after 48 hrs by MTT assay. The data set is classed as functional, cell-based.
Data set [13] in a line: Metabolic stability in Sprague-Dawley rat liver microsomes assessed as compound remaining after 120 mins in presence of NADPH by UV-based HPLC-MS/MS analysis. The data set is classed as ADME, microsome. Particulars: read-out: Stability.
Data set [14] has as its system A549. Briefly: Disruption of mitochondrial membrane potential in human A549 cells after 24 hrs by JC1 staining-based flow cytometry method. The data set is classed as functional, cell-based.
Data set [15] is described as follows: Metabolic stability in Sprague-Dawley rat liver microsomes assessed as compound remaining after 90 mins in presence of NADPH by UV-based HPLC-MS/MS analysis. It is filed as ADME, microsome. Particulars: read-out: Stability.

Description for A2780: Antiproliferative activity against human A2780 cells after 48 hrs by MTT assay

On to `C=C(c1ccc(OC)c(O)c1)c1cc(OC)c(OC)c([Se]C)c1`, for which the Activity in the data set on A549 [1] is reported as 86.88%; with A549 [2] it was 48.49%; with A549 [3], 15.69%; with A549 [4], 57.63%; with A549 [5], 90.78%; with A549 [6], 13.55%. Also, the Activity is 1.69% with A549 [8]; 10.45% in the data set on A549 [9]; 12.78% in the data set with A549 [10]; 50% in the data set on A549 [11]; “Dose-dependent effect” in the data set on A549 [14]. In addition, the IC50 was 2.2 nM in the data set on MDA-MB-231; 27 nM in the data set on MCF7; 6 nM in the data set on A2780; 11 nM in the data set with RKO; 9 nM in the data set with LoVo; 34.4 nM in the data set with A549/CDDP. Further, the outcome in the data set with A549 [7] was Active. Further, the half-life in [12] amounted to 1.24 h. Also, in data set [13], the remaining at 2 h was 33.4%. In addition, in [15], the remaining at 1.5 h was determined as 44.1%.
